Test results as given in ChEMBL document CHEMBL1144546, “Design and synthesis of rho kinase inhibitors (III)” (Bioorg Med Chem, 2007).

Tests used:
[1] = biological target: T1, Rho-associated protein kinase (Homo sapiens, UniProt O75116+Q13464)
[2] = Inhibition of MCP1-induced chemotaxis in U937 cells overexpressing CCR2; conditions: u-937
[3] = biological target: Rho-associated protein kinase 2 (Rattus norvegicus) (UniProt Q62868); experiment: Ex vivo inhibition of Rho kinase activity in Sprague-Dawley rat serum at 30 mg/kg, po after 1 hrs; assay type: organism-based; design: dose 30 mg/kg; scale not given: the % may be the effect or the level left
[4] = biological target: Rho-associated protein kinase 2 (Rattus norvegicus) (UniProt Q62868); experiment: Ex vivo inhibition of Rho kinase activity in Sprague-Dawley rat serum at 30 mg/kg, po after 4 hrs; assay type: organism-based; design: dose 30 mg/kg; scale not given: the % may be the effect or the level left
[5] = biological target: Rho-associated protein kinase 2 (Rattus norvegicus) (UniProt Q62868); experiment: Ex vivo inhibition of Rho kinase activity in Sprague-Dawley rat serum at 30 mg/kg, po after 8 hrs; assay type: organism-based; design: dose 30 mg/kg; scale not given: the % may be the effect or the level left
[6] = biological target: T1, Rho-associated protein kinase; experiment: Inhibition of TPA-induced Rho kinase dependent MBS phosphorylation in MDCK 2 cells; assay type: functional, cell-based; conditions: Canis lupus familiaris
[7] = Metabolic stability in rat liver microsome at 10 uM after 30 mins; conditions: liver microsomes

Rho-associated protein kinase 2 (Rattus norvegicus), sequence (Q62868 whole entry, looked up): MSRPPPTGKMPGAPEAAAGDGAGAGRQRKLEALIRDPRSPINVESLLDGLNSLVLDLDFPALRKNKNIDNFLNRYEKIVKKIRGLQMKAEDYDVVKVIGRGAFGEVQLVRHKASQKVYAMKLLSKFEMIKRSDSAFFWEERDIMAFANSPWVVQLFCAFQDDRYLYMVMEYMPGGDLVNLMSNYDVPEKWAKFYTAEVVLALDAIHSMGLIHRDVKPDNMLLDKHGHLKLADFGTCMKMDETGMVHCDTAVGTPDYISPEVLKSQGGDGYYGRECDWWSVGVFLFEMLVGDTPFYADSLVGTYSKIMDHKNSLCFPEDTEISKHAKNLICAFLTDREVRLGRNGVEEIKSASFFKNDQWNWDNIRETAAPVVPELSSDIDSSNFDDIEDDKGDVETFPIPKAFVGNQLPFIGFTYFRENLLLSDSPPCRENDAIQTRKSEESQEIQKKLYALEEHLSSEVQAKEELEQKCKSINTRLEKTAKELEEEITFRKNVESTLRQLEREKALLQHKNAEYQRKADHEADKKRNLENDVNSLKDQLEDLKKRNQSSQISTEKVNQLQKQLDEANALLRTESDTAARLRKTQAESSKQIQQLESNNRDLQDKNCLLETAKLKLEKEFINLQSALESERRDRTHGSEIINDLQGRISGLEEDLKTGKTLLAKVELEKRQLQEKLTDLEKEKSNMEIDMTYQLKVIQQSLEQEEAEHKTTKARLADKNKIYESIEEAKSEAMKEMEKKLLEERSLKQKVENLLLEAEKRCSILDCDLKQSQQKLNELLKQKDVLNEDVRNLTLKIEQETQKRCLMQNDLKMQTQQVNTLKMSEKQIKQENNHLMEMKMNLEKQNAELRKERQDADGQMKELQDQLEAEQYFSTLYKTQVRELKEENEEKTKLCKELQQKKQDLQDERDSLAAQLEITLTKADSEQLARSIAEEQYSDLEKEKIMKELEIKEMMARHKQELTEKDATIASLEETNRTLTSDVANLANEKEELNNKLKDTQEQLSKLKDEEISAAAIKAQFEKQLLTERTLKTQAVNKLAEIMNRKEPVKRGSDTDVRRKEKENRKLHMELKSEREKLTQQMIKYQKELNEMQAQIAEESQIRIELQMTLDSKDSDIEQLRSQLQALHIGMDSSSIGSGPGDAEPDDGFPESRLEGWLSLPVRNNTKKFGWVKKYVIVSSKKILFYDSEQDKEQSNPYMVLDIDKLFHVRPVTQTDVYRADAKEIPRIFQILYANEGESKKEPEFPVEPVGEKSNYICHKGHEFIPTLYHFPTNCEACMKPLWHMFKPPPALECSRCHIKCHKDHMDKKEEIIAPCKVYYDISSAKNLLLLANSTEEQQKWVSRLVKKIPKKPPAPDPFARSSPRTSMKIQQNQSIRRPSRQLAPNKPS
T1 sequence (O75116 whole entry, looked up): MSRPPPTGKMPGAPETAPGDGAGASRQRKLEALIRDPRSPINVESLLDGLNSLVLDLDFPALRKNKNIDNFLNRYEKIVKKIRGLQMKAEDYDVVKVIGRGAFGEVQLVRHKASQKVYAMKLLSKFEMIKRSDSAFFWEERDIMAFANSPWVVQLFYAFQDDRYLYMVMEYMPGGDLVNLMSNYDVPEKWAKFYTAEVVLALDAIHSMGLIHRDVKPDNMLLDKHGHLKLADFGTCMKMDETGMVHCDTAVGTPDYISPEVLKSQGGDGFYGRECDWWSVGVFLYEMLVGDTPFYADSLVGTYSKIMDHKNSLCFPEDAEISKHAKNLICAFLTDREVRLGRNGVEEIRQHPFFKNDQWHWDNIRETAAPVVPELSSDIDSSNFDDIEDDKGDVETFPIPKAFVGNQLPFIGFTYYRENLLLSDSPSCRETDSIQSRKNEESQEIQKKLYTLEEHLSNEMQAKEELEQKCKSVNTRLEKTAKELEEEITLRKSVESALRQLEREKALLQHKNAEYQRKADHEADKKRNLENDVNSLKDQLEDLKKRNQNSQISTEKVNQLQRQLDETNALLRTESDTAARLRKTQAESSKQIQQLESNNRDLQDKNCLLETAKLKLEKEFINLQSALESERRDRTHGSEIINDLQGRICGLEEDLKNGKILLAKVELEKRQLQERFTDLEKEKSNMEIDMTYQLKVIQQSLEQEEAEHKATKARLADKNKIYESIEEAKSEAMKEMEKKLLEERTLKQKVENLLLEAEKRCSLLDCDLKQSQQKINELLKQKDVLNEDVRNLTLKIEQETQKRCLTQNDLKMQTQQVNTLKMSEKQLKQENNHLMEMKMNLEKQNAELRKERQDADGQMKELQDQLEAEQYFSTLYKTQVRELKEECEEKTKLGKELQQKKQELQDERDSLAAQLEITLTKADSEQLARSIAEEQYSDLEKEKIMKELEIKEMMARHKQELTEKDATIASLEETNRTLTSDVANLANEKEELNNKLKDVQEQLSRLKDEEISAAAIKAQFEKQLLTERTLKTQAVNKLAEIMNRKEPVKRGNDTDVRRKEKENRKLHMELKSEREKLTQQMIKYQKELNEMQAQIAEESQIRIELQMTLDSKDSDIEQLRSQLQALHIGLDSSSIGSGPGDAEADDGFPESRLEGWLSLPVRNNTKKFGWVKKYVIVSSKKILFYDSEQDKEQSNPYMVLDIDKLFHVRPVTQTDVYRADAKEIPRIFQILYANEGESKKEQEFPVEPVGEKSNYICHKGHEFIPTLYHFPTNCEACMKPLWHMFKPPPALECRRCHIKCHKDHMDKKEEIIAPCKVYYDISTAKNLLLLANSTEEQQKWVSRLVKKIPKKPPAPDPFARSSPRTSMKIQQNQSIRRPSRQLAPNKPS
T1 sequence (Q13464 whole entry, looked up): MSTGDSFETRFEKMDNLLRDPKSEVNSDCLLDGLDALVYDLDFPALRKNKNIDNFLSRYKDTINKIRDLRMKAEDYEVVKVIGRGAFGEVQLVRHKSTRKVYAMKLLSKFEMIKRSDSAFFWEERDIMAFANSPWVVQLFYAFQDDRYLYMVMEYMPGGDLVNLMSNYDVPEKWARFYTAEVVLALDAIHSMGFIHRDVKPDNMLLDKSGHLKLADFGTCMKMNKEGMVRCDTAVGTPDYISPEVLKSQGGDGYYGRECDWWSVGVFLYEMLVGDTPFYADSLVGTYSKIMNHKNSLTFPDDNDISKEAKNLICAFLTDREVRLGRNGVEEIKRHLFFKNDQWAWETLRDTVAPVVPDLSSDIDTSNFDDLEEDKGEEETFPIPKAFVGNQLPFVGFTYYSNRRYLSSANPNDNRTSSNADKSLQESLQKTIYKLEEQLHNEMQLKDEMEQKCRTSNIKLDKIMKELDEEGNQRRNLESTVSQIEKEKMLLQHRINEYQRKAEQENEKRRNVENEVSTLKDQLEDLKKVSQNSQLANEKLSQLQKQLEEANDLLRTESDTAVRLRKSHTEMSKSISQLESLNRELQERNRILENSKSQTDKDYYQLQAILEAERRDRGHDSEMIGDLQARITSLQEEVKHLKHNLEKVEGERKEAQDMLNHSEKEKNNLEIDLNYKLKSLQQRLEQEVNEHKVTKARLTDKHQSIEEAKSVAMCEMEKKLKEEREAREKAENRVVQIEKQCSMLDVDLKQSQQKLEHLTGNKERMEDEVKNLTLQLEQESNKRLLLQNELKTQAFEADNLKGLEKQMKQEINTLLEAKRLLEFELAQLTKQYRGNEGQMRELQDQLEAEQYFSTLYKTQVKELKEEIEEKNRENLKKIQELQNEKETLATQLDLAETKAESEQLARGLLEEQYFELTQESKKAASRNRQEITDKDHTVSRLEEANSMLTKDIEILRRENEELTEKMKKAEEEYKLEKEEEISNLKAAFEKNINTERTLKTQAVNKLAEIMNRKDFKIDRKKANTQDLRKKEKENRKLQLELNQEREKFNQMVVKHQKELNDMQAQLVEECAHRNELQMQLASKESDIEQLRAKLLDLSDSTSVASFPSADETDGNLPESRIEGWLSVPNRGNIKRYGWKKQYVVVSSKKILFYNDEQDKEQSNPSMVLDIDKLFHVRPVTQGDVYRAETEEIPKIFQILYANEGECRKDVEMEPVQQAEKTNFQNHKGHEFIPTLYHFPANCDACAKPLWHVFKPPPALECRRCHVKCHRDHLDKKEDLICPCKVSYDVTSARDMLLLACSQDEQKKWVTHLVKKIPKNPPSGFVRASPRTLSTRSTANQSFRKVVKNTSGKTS

IC50 [1] | Compound | further results
345 nM | CCCN1CCC(Nc2cccc3cnccc23)CC1 | 
440 nM | c1ccc(CCN[C@H]2CC[C@H](Nc3cccc4cnccc34)CC2)cc1 | 
 | O=S(=O)(c1cccc2cnccc12)N1CCCNCC1 [FASUDIL] | IC50 [2]: 35000 nM
265 nM | Clc1cccc(CN2CCCC(Nc3cccc4cnccc34)C2)c1 (stereo unspecified) | 
580 nM | c1ccc(CCN[C@H]2CC[C@@H](Nc3cccc4cnccc34)CC2)cc1 | 
205 nM | Nc1ccccc1CN1CCC(Nc2cccc3cnccc23)C1 (stereo unspecified) | 
235 nM | Nc1ccc(CN2CCC(Nc3cccc4cnccc34)C2)cc1 (stereo unspecified) | 
100 nM | Clc1ccccc1CN1CCC(Nc2cccc3cnccc23)C1 (stereo unspecified) | 
310 nM | Nc1cccc(CN2CC[C@H](Nc3cccc4cnccc34)C2)c1 | Activity [3]: 30%; Activity [4]: 17%; Activity [5]: 0%
65 nM | Clc1cccc(CN2CCC(Nc3cccc4cnccc34)C2)c1 (stereo unspecified) | 
25 nM | Nc1cccc(CN2CC[C@@H](Nc3cccc4cnccc34)C2)c1 | Activity [3]: 52%; Activity [4]: 42%; Activity [5]: 26%; Activity [6]: Dose-dependent effect
95 nM | Fc1ccc(CN2CCC(Nc3cccc4cnccc34)C2)cc1 (stereo unspecified) | 
70 nM | c1cc(N[C@H]2CC[C@H](NC3CC3)CC2)c2ccncc2c1 | 
195 nM | c1cc(N[C@H]2CC[C@@H](NC3CC3)CC2)c2ccncc2c1 | 
275 nM | Nc1cccc(CN2CCC(Nc3cccc4cnccc34)C2)c1 (stereo unspecified) | remaining at 0.5 h, 10 µM [7]: 67%
75 nM | Fc1cccc(F)c1CN1CCC(Nc2cccc3cnccc23)C1 (stereo unspecified) | 
65 nM | Clc1ccc(CN2CCC(Nc3cccc4cnccc34)C2)cc1 (stereo unspecified) | 
210 nM | Clc1ccccc1CN1CCCC(Nc2cccc3cnccc23)C1 (stereo unspecified) | 

Compound | IC50 [1] | further results
CCCN[C@H]1CC[C@@H](Nc2cccc3cnccc23)CC1 | 180 nM | 
CC(C)CCN1CCCC(Nc2cccc3cnccc23)C1 (stereo unspecified) | 270 nM | 
CC(C)CN1CCC(Nc2cccc3cnccc23)CC1 | 210 nM | 
c1ccc(CN2CCC(Nc3cccc4cnccc34)CC2)cc1 | 140 nM | 
CCCN[C@H]1CC[C@H](Nc2cccc3cnccc23)CC1 | 180 nM | 
